Test results published in US5783703A, “Sulfur-containing compounds method for their use and prodction” (Lederle (Japan), Ltd., priority 1993, dated 1998).
Values after ≈ are worked out from the molar mass of the structure shown.

Experiments:
Test in all cases: Antibacterial activity, agar plate dilution method (MIC), Experimental Example 2
Type in all cases: cell-based
B. subtilis ATCC 6633 = settings: Bacillus subtilis, ATCC6633, MH agar, 37° C., 18 hours
Procedure: (§1) There was measured, by the following method, the antibacterial activity of the compound (16) which had been produced in Example 14 with use of the compound (I) of the present invention as a synthesis intermediate.
(§2) There was employed the agar plate dilution method in accordance with the standard method of the Japanese Chemotherapy Society [Chemotherapy, vol. 29, 76-79 (1981)]. Concretely, a Mueller-Hinton (MH) agar liquid medium containing the test microorganism was cultured overnight at 37° C., and the resultant culture medium was diluted with a buffered saline gelatin (BSG) solution so that the concentration of the test microorganism might be about […]. Then, with use of a microplanter, this diluted solution was inoculated each about 5 μl on MH agar media containing the test compounds. Thus, the minimum concentration of the test compound in which no growth of the test microorganism was observed after the incubation at 37° C. for 18 hours was regarded as Minimum Inhibitory Concentration (MIC). Incidentally, all of the test organisms used here were standard strains.

E. aerogenes ATCC 13048 = settings: Klebsiella aerogenes, ATCC13048, MH agar, 37° C., 18 hours
Procedure: as §1, §2

E. cloacae 963 = settings: Enterobacter cloacae, MH agar, 37° C., 18 hours
Procedure: as §1, §2

E. coli K-12 C600 = settings: Escherichia coli, K12C600, MH agar, 37° C., 18 hours
Procedure: as §1, §2

E. coli NIHJ JC-2 = settings: Escherichia coli, NIHJJC2, MH agar, 37° C., 18 hours
Procedure: as §1, §2

K. pneumoniae PCI-602 = settings: Klebsiella pneumoniae, PCI602, MH agar, 37° C., 18 hours
Procedure: as §1, §2

M. luteus ATCC 9341 = settings: Micrococcus luteus, ATCC9341, MH agar, 37° C., 18 hours
Procedure: as §1, §2

M. morganii IFO 3848 = settings: Morganella morganii, IFO3848, MH agar, 37° C., 18 hours
Procedure: as §1, §2

P. mirabilis IFO 3849 = settings: Proteus mirabilis, IFO3849, MH agar, 37° C., 18 hours
Procedure: as §1, §2

P. rettgeri IFO 3850 = settings: Providencia rettgeri, IFO3850, MH agar, 37° C., 18 hours
Procedure: as §1, §2

P. vulgaris HX-19 = settings: Proteus vulgaris, HX19, MH agar, 37° C., 18 hours
Procedure: as §1, §2

P. vulgaris OX-19 = settings: Proteus vulgaris, OX19, MH agar, 37° C., 18 hours
Procedure: as §1, §2

S. aureus FDA209P JC-1 = settings: Staphylococcus aureus, MH agar, 37° C., 18 hours
Procedure: as §1, §2

S. aureus MS353 = settings: Staphylococcus aureus, MH agar, 37° C., 18 hours
Procedure: as §1, §2

S. aureus Terajima = settings: Staphylococcus aureus, MH agar, 37° C., 18 hours
Procedure: as §1, §2

S. enteritidis G14 = settings: Salmonella enterica, MH agar, 37° C., 18 hours
Procedure: as §1, §2

S. marcescens IAM 1184 = settings: Serratia marcescens, IAM1184, MH agar, 37° C., 18 hours
Procedure: as §1, §2

S. paratyphi 1015 = settings: Salmonella enterica, 18 h
Procedure: as §1, §2

S. pyogenes Cook = settings: Streptococcus pyogenes, MH agar, 37° C., 18 hours
Procedure: as §1, §2

S. schottmuelleri 8006 = settings: MH agar, 37° C., 18 hours
Procedure: as §1, §2

S. typhi 901 = settings: Salmonella enterica, 18 h
Procedure: as §1, §2

S. typhimurium 11D971 = settings: Salmonella enterica, MH agar, 37° C., 18 hours
Procedure: as §1, §2

## C[C@@H](O)[C@H]1C(=O)N2C(C(=O)O)=C(SC3CN(C4=NCCS4)C3)[C@H](C)[C@H]12 [compound (16), (1R, 5S, 6S)-2-[1-(1,3-thiazolin-2-yl)azetidin-3-yl]thio-6-[(R)-1-hydroxyethyl]-1-methylcarbapen-2-em-3-carboxylate]
B. subtilis ATCC 6633
  MIC: 0.025 µg/mL (≈ 0.0652 µM)
E. aerogenes ATCC 13048
  MIC: 0.1 µg/mL (≈ 0.261 µM)
E. cloacae 963
  MIC: 0.05 µg/mL (≈ 0.13 µM)
E. coli K-12 C600
  MIC: 0.1 µg/mL (≈ 0.261 µM)
E. coli NIHJ JC-2
  MIC: 0.013 µg/mL (≈ 0.0339 µM)
K. pneumoniae PCI-602
  MIC: 0.013 µg/mL (≈ 0.0339 µM)
M. luteus ATCC 9341
  MIC: 0.2 µg/mL (≈ 0.522 µM)
M. morganii IFO 3848
  MIC: 0.39 µg/mL (≈ 1.02 µM)
P. mirabilis IFO 3849
  MIC: 0.39 µg/mL (≈ 1.02 µM)
P. rettgeri IFO 3850
  MIC: 0.39 µg/mL (≈ 1.02 µM)
P. vulgaris HX-19
  MIC: 0.1 µg/mL (≈ 0.261 µM)
P. vulgaris OX-19
  MIC: 0.1 µg/mL (≈ 0.261 µM)
S. aureus FDA209P JC-1
  MIC: 0.013 µg/mL (≈ 0.0339 µM)
S. aureus MS353
  MIC: ≤ 6 ng/mL
S. aureus Terajima
  MIC: ≤ 6 ng/mL
S. enteritidis G14
  MIC: 0.39 µg/mL (≈ 1.02 µM)
S. marcescens IAM 1184
  MIC: 0.05 µg/mL (≈ 0.13 µM)
S. paratyphi 1015
  MIC: 0.05 µg/mL (≈ 0.13 µM)
S. pyogenes Cook
  MIC: ≤ 6 ng/mL
S. schottmuelleri 8006
  MIC: 0.025 µg/mL (≈ 0.0652 µM)
S. typhi 901
  MIC: ≤ 6 ng/mL
S. typhimurium 11D971
  MIC: 0.025 µg/mL (≈ 0.0652 µM)
